Results reported in ChEMBL document CHEMBL3045428, “Hypolipidemic, hepato-protective and renal damage recovering effects of catechin isolated from the methanolic extract of Cassia fistula stem bark on Streptozotocin-induced diabetic Wistar rats: a biochemical and morphological analysis” (Med Chem Res, 2012).
Activity calls are given as the source filed them. The calls are words filed in the database; no cut-off is given here.

Tests used:
Rattus norvegicus [1] = test: Nephroprotective activity in STZ-induced diabetic Rattus norvegicus Wistar albino (rat) assessed as change in serum creatinine level at 20 mg/kg, po administered via intragastric tube for 45 days (reference value: 2.1 +/-0.9 mg/dl); format: functional
Rattus norvegicus [2] = test: Antidiabetic activity against STZ-induced diabetic Rattus norvegicus Wistar albino (rat) assessed as serum VLDL level at 20 mg/kg, po administered via intragastric tube for 45 days (reference value: 55.2 +/-4.5 mg/dl); format: functional
Rattus norvegicus [3] = test: Antidiabetic activity against STZ-induced diabetic Rattus norvegicus Wistar albino (rat) assessed as change in hemoglobin at 20 mg/kg, po administered via intragastric tube for 45 days (reference value: 8.5 +/-0.9 mg/dl); format: functional
Rattus norvegicus [4] = test: Nephroprotective activity in STZ-induced diabetic Rattus norvegicus Wistar albino (rat) assessed as change in serum uric acid level at 20 mg/kg, po administered via intragastric tube for 45 days (reference value: 1.5 +/-0.9 mg/dl); format: functional
Rattus norvegicus [5] = test: Hepatoprotective activity in STZ-induced diabetic Rattus norvegicus Wistar albino (rat) assessed as re-apperance of hepatic lobules at 20 mg/kg, po administered via intragastric tube for 45 days using hematoxylin/eosin staining method; format: functional, organism-based; parameters: dose 20 mg/kg; conditions: Liver
Rattus norvegicus [6] = test: Hepatoprotective activity in STZ-induced diabetic Rattus norvegicus Wistar albino (rat) assessed as plasma ALP level at 20 mg/kg, po administered via intragastric tube for 45 days (reference value: 91.1 +/-9.2 ug/dl); format: functional
Rattus norvegicus [7] = test: Hepatoprotective activity in STZ-induced diabetic Rattus norvegicus Wistar albino (rat) assessed as plasma AST level at 20 mg/kg, po administered via intragastric tube for 45 days (reference value: 85.5 +/-9.21 ug/dl); format: functional
Rattus norvegicus [8] = test: Hepatoprotective activity in STZ-induced diabetic Rattus norvegicus Wistar albino (rat) assessed as plasma ACP level at 20 mg/kg, po administered via intragastric tube for 45 days (reference value: 28.7 +/-2.61 ug/dl); format: functional
Rattus norvegicus [9] = test: Antidiabetic activity against STZ-induced diabetic Rattus norvegicus Wistar albino (rat) assessed as serum LDL level at 20 mg/kg, po administered via intragastric tube for 45 days (reference value: 165.7 +/-14.35 mg/dl); format: functional
Rattus norvegicus [10] = test: Nephroprotective activity in STZ-induced diabetic Rattus norvegicus Wistar albino (rat) assessed as reduction in enlargement of glomerulus at 20 mg/kg, po administered via intragastric tube for 45 days using hematoxylin/eosin staining method; format: functional, organism-based; parameters: dose 20 mg/kg
Rattus norvegicus [11] = test: Nephroprotective activity in STZ-induced diabetic Rattus norvegicus Wistar albino (rat) assessed as reduction in glomerular expansion at 20 mg/kg, po administered via intragastric tube for 45 days using hematoxylin/eosin staining method; format: functional, organism-based; parameters: dose 20 mg/kg
Rattus norvegicus [12] = test: Antidiabetic activity against STZ-induced diabetic Rattus norvegicus Wistar albino (rat) assessed as serum cholesterol level at 20 mg/kg, po administered via intragastric tube for 45 days (reference value: 295.5 +/-17.1 mg/dl); format: functional
Rattus norvegicus [13] = test: Antidiabetic activity against STZ-induced diabetic Rattus norvegicus Wistar albino (rat) assessed as serum triglyceride level at 20 mg/kg, po administered via intragastric tube for 45 days (reference value: 65.5 +/-7.9 mg/dl); format: functional
Rattus norvegicus [14] = test: Antidiabetic activity against STZ-induced diabetic Rattus norvegicus Wistar albino (rat) assessed as serum HDL level at 20 mg/kg, po administered via intragastric tube for 45 days (reference value: 25.8 +/-1.6 mg/dl); format: functional
Rattus norvegicus [15] = test: Nephroprotective activity in STZ-induced diabetic Rattus norvegicus Wistar albino (rat) assessed as change in serum urea level at 20 mg/kg, po administered via intragastric tube for 45 days (reference value: 41.5 +/-4.9 mg/dl); format: functional
Rattus norvegicus [16] = test: Hepatoprotective activity in STZ-induced diabetic Rattus norvegicus Wistar albino (rat) assessed as plasma ALT level at 20 mg/kg, po administered via intragastric tube for 45 days (reference value: 97.11 +/-10.3 ug/dl); format: functional
Rattus norvegicus [17] = test: Nephroprotective activity in STZ-induced diabetic Rattus norvegicus Wistar albino (rat) assessed as change in serum total protein level at 20 mg/kg, po administered via intragastric tube for 45 days (reference value: 3.7 +/-0.9 g/dl); format: functional
Rattus norvegicus [18] = test: Antidiabetic activity against STZ-induced diabetic Rattus norvegicus Wistar albino (rat) assessed as change in glycosylated hemoglobin of total hemoglobin at 20 mg/kg, po administered via intragastric tube for 45 days (reference value: 0.89 +/-0.03 %); format: functional
Rattus norvegicus [19] = test: Antidiabetic activity against STZ-induced diabetic Rattus norvegicus Wistar albino (rat) assessed as change in body weight at 20 mg/kg, po administered via intragastric tube for 45 days (reference value: 243.67 +/-8.9 g); format: functional
Rattus norvegicus [20] = test: Toxicity in Rattus norvegicus Wistar albino (rat) assessed as change in glycosylated hemoglobin of total hemoglobin at 20 mg/kg, po administered via intragastric tube for 45 days (reference value: 0.52 +/-0.03 % ); format: organism-based; parameters: dose 20 mg/kg, route oral; conditions: in vivo, 1080 h
Rattus norvegicus [21] = test: Hepatotoxicity in Rattus norvegicus Wistar albino (rat) assessed as change in plasma ALP level at 20 mg/kg, po administered via intragastric tube for 45 days (reference value: 49.99+/-4.7 ug/dl); format: toxicity, organism-based; parameters: dose 20 mg/kg, route oral; conditions: in vivo, 1080 h
Rattus norvegicus [22] = test: Hepatotoxicity in Rattus norvegicus Wistar albino (rat) assessed as change in plasma ACP level at 20 mg/kg, po administered via intragastric tube for 45 days (reference value: 9.97+/-1.1 ug/dl); format: toxicity, organism-based; parameters: dose 20 mg/kg, route oral; conditions: in vivo, 1080 h
Rattus norvegicus [23] = test: Nephrotoxicity in Rattus norvegicus Wistar albino (rat) assessed as change in uric acid level in serum at 20 mg/kg, po administered via intragastric tube for 45 days (reference value: 0.96 +/- 0.93 mg/dl ); format: toxicity, organism-based; parameters: dose 20 mg/kg, route oral; conditions: in vivo, 1080 h
Rattus norvegicus [24] = test: Toxicity in Rattus norvegicus Wistar albino (rat) assessed as change in hemoglobin level at 20 mg/kg, po administered via intragastric tube for 45 days (reference value: 15.12 +/-1.3 mg/dl ); format: organism-based; parameters: dose 20 mg/kg, route oral; conditions: in vivo, 1080 h
Rattus norvegicus [25] = test: Toxicity in Rattus norvegicus Wistar albino (rat) assessed as serum triglyceride level at 20 mg/kg, po administered via intragastric tube for 45 days (Rvb =17.72 +/-1.3 mg/dl); format: organism-based; parameters: dose 20 mg/kg, route oral; conditions: in vivo, 1080 h
Rattus norvegicus [26] = test: Nephrotoxicity in Rattus norvegicus Wistar albino (rat) assessed as change in serum total protein level at 20 mg/kg, po administered via intragastric tube for 45 days (reference value: 8.12 +/- 1.0 g/dl ); format: toxicity, organism-based; parameters: dose 20 mg/kg, route oral; conditions: in vivo, 1080 h
Rattus norvegicus [27] = test: Toxicity in Rattus norvegicus Wistar albino (rat) assessed as serum cholesterol level at 20 mg/kg, po administered via intragastric tube for 45 days (reference value: 97.72 +/-7.3 mg/dl); format: organism-based; parameters: dose 20 mg/kg, route oral; conditions: in vivo, 1080 h
Rattus norvegicus [28] = test: Toxicity in Rattus norvegicus Wistar albino (rat) assessed as serum HDL level at 20 mg/kg, po administered via intragastric tube for 45 days (Rvb =65.21 +/-6.9 mg/dl); format: organism-based; parameters: dose 20 mg/kg, route oral; conditions: in vivo, 1080 h
Rattus norvegicus [29] = test: Hepatotoxicity in Rattus norvegicus Wistar albino (rat) assessed as change in plasma AST level at 20 mg/kg, po administered via intragastric tube for 45 days (reference value: 39.6 +/-3.3 ug/dl); format: toxicity, organism-based; parameters: dose 20 mg/kg, route oral; conditions: in vivo, 1080 h
Rattus norvegicus [30] = test: Toxicity in Rattus norvegicus Wistar albino (rat) assessed as change in body weight at 20 mg/kg, po administered via intragastric tube for 45 days (reference value: 238.2 +/-7.3 g); format: organism-based; parameters: dose 20 mg/kg, route oral; conditions: in vivo, 1080 h
Rattus norvegicus [31] = test: Nephrotoxicity in Rattus norvegicus Wistar albino (rat) assessed as change in creatinine level in serum at 20 mg/kg, po administered via intragastric tube for 45 days (reference value: 1.62 +/- 0.2 mg/dl ); format: toxicity, organism-based; parameters: dose 20 mg/kg, route oral; conditions: in vivo, 1080 h
Rattus norvegicus [32] = test: Nephrotoxicity in Rattus norvegicus Wistar albino (rat) assessed as change in urea level in serum at 20 mg/kg, po administered via intragastric tube for 45 days (reference value: 24.12 +/- 2.3 mg/dl ); format: toxicity, organism-based; parameters: dose 20 mg/kg, route oral; conditions: in vivo, 1080 h
Rattus norvegicus [33] = test: Hepatotoxicity in Rattus norvegicus Wistar albino (rat) assessed as change in plasma ALT level at 20 mg/kg, po administered via intragastric tube for 45 days (reference value: 56.72 +/-5.2 ug/dl); format: toxicity, organism-based; parameters: dose 20 mg/kg, route oral; conditions: in vivo, 1080 h

In the case of Oc1cc(O)c2c(c1)OC(c1ccc(O)c(O)c1)C(O)C2 (stereo not drawn) [CATECHIN], the Activity (Rattus norvegicus [1]) is reported as 1.78 mg/dL, the Activity (Rattus norvegicus [2]) is reported as 13.21 mg/dL and the Activity (Rattus norvegicus [3]) is reported as 14.98 mg/dL. The Activity (Rattus norvegicus [4]) was 0.99 mg/dL, the Activity (Rattus norvegicus [5]) was “Active” and the Activity (Rattus norvegicus [6]) was 54.29 µg/dL. The Activity (Rattus norvegicus [7]) was 41.95 µg/dL, the Activity (Rattus norvegicus [8]) was 11.98 µg/dL and the Activity (Rattus norvegicus [9]) was 91.28 mg/dL. The Activity (Rattus norvegicus [10]) was “Active”, the Activity (Rattus norvegicus [11]) was “Active” and the Activity (Rattus norvegicus [12]) was 109.21 mg/dL. It also gave an Activity (Rattus norvegicus [13]) of 20.81 mg/dL, an Activity (Rattus norvegicus [14]) of 60.56 mg/dL and an Activity (Rattus norvegicus [15]) of 29.98 mg/dL. For the same compound, the Activity (Rattus norvegicus [16]) was 59.71 µg/dL, the Activity (Rattus norvegicus [17]) was 6.58 g/dL and the Activity (Rattus norvegicus [18]) was 0.57%. It also gave an Activity (Rattus norvegicus [19]) of 209.12 g.
With Oc1cc(O)c2c(c1)O[C@H](c1ccc(O)c(O)c1)[C@@H](O)C2 [CATECHIN] the Activity (Rattus norvegicus [20]) was 0.46%, the Activity (Rattus norvegicus [21]) was 50.87 µg/dL and the Activity (Rattus norvegicus [22]) was 9.52 µg/dL. For the same compound, the Activity (Rattus norvegicus [23]) was 0.98 mg/dL, the Activity (Rattus norvegicus [24]) was 14.98 mg/dL and the Activity (Rattus norvegicus [25]) was 18.18 mg/dL. It also gave an Activity (Rattus norvegicus [26]) of 8.98 g/dL, an Activity (Rattus norvegicus [27]) of 98.34 mg/dL and an Activity (Rattus norvegicus [28]) of 68.65 mg/dL. For the same compound, the Activity (Rattus norvegicus [29]) was 36.12 µg/dL, the Activity (Rattus norvegicus [30]) was 239.67 g and the Activity (Rattus norvegicus [31]) was 1.98 mg/dL. The Activity (Rattus norvegicus [32]) was 23.98 mg/dL and the Activity (Rattus norvegicus [33]) was 55.18 µg/dL.
